Like-named read-outs stand apart in the source and are kept apart here.
Key:
CLK4 [1] = biological target: T1, CLK4 (Homo sapiens, UniProt Q9HAZ1); test: kinase panel (Eurofins), residual activity at […]; format: biochemical
MAPK2(h) = biological target: T2, MAPK2(h) (Homo sapiens, UniProt P28482); test: biochemical; set-up: Eurofins kinase panel, residual kinase activity (%) at 10 uM relative to DMSO
T2 construct: gene MAPK1
Protocol: (§1) Eurofins performed a “Full KP Panel [Km ATP], KinaseProfile” which contains 429 radiometric kinase activity assays. The remaining kinase activity (%) was determined after treatment with the compounds at a concentration of 10 µM (Cfr. supporting information). Since we could not confirm the interaction between Spautin-1 analogues and USP13, a kinase screening was performed using a set of four compounds (Spautin-1 and three analogues) to discover off-targets and identify kinases that are potentially responsible for the reduction in cell viability observed in our screen (Table 2). The KINOMEscan from Eurofins was performed (see Table S1). This screen consists of a competitive binding assay in which the DNA-tagged kinase is incubated with one of the compounds in the presence of immobilized active site binding ligands. Binding of the compounds to the kinase hampers the binding of the kinase to the ligands and this inhibition was quantified by qPCR.

MAPK1(h) = biological target: T3, MAPK1(h) (Homo sapiens, UniProt P27361); test: biochemical; set-up: Eurofins kinase panel, residual kinase activity (%) at 10 uM relative to DMSO
T3 construct: gene MAPK3
T3 sequence (P27361 whole entry): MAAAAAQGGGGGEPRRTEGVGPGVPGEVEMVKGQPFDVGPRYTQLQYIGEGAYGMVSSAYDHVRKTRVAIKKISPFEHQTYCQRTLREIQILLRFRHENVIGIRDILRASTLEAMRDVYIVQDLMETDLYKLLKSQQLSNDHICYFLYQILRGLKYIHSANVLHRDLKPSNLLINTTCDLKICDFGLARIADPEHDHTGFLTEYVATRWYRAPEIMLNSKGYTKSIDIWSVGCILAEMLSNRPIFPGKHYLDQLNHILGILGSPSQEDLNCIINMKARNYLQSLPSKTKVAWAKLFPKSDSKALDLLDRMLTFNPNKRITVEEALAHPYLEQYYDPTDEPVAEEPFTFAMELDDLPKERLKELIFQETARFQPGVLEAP
Protocol: as §1

ACTR2(h) = biological target: T4, ACTR2(h) (Homo sapiens, UniProt P27037); test: biochemical; set-up: Eurofins kinase panel, residual kinase activity (%) at 10 uM relative to DMSO
T4 construct: gene ACVR2A
T4 sequence (P27037 whole entry): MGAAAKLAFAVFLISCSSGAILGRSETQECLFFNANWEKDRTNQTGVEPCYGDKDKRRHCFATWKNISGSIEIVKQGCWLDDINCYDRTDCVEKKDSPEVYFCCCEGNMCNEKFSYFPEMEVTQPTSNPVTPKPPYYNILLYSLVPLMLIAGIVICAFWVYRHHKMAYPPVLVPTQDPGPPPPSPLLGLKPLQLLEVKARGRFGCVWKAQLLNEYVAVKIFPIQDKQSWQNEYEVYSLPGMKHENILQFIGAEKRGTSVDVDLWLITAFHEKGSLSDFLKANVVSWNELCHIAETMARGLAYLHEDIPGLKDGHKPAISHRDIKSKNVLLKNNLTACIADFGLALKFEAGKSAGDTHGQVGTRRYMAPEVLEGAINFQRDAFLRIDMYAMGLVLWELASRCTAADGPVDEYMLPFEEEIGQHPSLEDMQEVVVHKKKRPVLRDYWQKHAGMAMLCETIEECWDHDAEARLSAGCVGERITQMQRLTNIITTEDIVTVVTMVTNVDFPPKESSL
Protocol: as §1

MAPK2(m) = biological target: T5, MAPK2(m) (Mus musculus, UniProt P63085); test: biochemical; set-up: Eurofins kinase panel, residual kinase activity (%) at 10 uM relative to DMSO
T5 construct: gene Mapk1
T5 sequence (P63085 whole entry): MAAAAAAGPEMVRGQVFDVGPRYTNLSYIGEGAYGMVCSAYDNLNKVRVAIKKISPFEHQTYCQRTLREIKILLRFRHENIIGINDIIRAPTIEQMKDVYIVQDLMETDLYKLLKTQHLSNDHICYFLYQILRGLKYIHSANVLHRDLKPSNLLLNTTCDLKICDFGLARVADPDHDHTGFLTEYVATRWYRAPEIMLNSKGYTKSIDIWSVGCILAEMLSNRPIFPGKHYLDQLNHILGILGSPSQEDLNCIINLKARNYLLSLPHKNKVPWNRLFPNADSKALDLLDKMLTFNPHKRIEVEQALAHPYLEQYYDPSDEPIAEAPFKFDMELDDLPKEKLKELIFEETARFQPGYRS
Protocol: as §1

EGFR [2] = biological target: T6, EGFR (Homo sapiens, UniProt P00533); test: kinase panel (Eurofins), residual activity at […]; format: biochemical
T6 sequence (P00533 25-1210): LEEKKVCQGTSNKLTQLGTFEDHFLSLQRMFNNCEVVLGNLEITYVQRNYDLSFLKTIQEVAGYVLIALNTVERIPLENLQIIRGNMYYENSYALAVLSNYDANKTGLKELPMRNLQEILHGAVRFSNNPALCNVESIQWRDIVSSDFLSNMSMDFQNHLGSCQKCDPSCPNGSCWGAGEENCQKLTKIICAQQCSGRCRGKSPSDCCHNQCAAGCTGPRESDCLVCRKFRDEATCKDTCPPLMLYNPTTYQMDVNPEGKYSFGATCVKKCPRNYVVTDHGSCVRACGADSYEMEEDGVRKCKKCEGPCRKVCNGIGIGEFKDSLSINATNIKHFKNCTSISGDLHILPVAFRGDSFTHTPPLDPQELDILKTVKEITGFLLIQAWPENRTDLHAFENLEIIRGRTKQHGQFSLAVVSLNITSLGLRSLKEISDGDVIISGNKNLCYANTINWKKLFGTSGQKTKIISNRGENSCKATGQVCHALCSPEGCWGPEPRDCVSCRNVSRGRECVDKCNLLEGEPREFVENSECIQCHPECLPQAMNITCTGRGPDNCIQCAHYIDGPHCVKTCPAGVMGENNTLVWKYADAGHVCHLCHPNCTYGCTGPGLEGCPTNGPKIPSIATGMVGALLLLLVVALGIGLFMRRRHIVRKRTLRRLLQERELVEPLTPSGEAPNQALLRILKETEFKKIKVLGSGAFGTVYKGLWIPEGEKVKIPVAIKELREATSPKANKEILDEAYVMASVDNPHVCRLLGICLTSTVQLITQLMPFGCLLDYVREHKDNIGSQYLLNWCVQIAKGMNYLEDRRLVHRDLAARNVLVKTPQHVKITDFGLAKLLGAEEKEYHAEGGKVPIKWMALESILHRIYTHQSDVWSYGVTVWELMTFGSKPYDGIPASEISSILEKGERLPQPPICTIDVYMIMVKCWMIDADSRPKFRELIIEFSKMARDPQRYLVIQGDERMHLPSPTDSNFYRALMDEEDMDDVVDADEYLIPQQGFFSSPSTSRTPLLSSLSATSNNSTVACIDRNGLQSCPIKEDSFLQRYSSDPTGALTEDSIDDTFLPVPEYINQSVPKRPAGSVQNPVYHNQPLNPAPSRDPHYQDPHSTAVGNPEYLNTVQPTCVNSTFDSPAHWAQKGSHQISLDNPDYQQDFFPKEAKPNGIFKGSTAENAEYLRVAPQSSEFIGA

NEK4 [3] = biological target: T7, NEK4 (Homo sapiens, UniProt P51957); test: kinase panel (Eurofins), residual activity at […]; format: biochemical; settings: read-out: [drawing 3] / Residual Activity (%)
T7 sequence (P51957 whole entry): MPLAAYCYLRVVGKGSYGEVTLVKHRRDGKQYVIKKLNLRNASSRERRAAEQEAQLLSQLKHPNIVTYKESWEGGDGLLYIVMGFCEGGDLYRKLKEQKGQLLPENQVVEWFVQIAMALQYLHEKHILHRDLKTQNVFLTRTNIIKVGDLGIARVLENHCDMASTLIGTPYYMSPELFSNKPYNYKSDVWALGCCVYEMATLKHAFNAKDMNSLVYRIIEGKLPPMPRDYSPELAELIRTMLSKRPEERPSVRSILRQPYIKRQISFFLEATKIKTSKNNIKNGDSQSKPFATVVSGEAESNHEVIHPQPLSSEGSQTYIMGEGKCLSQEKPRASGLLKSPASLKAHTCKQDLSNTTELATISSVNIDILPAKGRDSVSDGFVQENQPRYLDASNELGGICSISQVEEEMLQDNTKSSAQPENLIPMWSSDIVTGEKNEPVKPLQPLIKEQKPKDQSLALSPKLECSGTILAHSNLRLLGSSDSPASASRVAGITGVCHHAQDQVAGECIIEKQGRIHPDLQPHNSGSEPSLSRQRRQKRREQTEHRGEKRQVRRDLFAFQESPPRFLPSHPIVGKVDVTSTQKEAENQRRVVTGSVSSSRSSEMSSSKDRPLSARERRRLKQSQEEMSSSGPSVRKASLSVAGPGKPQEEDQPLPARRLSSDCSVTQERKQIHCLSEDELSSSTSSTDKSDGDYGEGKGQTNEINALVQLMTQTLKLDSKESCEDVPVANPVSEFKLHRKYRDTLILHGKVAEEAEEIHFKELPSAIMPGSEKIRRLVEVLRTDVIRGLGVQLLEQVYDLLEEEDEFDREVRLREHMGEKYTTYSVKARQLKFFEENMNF

EGFR [4] = biological target: T6, EGFR; test: biochemical; set-up: Eurofins KinaseProfiler full panel at Km ATP, residual kinase activity (%) relative to DMSO
Outline: (§2)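 Radiometric kinase activity assays were run with ATP at Km and compounds at 10 µM, and remaining activity (%) was reported. A separate competitive binding screen measured DNA-tagged kinase displaced from immobilized active-site ligands by qPCR, giving percent kinase still bound at 10 µM compound in DMSO.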

CLK4 [5] = biological target: T1, CLK4; test: biochemical; set-up: Eurofins KinaseProfiler full panel at Km ATP, residual kinase activity (%) relative to DMSO
Outline: as §2

NEK4 [6] = biological target: T7, NEK4; test: radiometric kinase assay (Eurofins), IC50; format: biochemical
[7] = read-out: [drawing 1] / Residual Activity (%)
[8] = read-out: Residual activity (%) Spautin-1
[9] = read-out: Residual activity (%) 5as
[10] = read-out: Residual activity (%) 5at
[11] = read-out: [drawing 2] / Residual Activity (%)
[12] = read-out: Residual activity (%) 5ay

T1 sequence (Q9HAZ1 whole entry): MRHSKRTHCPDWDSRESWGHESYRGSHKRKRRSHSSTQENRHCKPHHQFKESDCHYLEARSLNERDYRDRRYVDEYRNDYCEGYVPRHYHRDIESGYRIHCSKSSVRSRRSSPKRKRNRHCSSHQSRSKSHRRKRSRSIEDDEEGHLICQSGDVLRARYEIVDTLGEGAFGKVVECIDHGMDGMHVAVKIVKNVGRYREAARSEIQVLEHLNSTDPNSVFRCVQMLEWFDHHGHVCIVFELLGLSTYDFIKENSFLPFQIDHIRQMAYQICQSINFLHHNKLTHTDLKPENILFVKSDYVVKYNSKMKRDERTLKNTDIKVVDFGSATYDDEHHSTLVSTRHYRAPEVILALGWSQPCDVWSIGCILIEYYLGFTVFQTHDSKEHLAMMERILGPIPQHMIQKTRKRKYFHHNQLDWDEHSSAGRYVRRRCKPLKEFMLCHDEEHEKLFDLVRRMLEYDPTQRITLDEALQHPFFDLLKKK
T2 sequence (P28482 whole entry): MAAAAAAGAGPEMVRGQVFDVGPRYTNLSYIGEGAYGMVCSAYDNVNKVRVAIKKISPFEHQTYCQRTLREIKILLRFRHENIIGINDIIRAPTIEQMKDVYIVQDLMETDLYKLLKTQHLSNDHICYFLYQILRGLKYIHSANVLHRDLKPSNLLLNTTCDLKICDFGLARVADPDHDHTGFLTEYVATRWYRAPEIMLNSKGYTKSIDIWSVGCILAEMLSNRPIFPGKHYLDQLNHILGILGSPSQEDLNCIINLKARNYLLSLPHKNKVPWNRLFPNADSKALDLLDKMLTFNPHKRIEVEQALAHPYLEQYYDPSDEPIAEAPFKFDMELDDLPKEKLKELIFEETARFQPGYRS

In the case of `Fc1ccc(CNc2ncnc3ccc(F)cc23)cc1` [5aa, 6-Fluoro-N-(4-fluorobenzyl)-4-Quinazolinamine], the remaining activity at 10 µM (CLK4 [1]; [7]) is reported as 19%, the remaining activity at 10 µM (MAPK2(h); [8]) is reported as 96% and the remaining activity at 10 µM (MAPK1(h); [8]) is reported as 96%. It also gave a remaining activity at 10 µM (ACTR2(h); [8]) of 92%, a remaining activity at 10 µM (MAPK2(m); [8]) of 104% and a remaining activity at 10 µM (EGFR [2]; [7]) of 27%.

`Fc1ccc(CCNc2ncnc3ccc(F)cc23)cc1` [5as, 6-Fluoro-N-[2-(4-Fluorophenyl)Ethyl]-4-Quinazolinamine] was tested, and the remaining activity at 10 µM (NEK4 [3]) was 27%, the remaining activity at 10 µM (MAPK2(h); [9]) was 87% and the remaining activity at 10 µM (MAPK1(h); [9]) was 93%. It also gave a remaining activity at 10 µM (ACTR2(h); [9]) of 83%, a remaining activity at 10 µM (MAPK2(m); [9]) of 105% and a remaining activity at 10 µM (EGFR [4]; [9]) of 46%. The remaining activity at 10 µM (CLK4 [5]; [9]) was 12%.

Compound `Fc1ccc2ncnc(NCCc3ccc(Cl)cc3)c2c1` [5at, N-[2-(4-Chlorophenyl)Ethyl]-6-Fluoro-4-Quinazolinamine] has an IC50 (NEK4 [6]) of about 1 µM, a remaining activity at 10 µM (MAPK2(h); [10]) of 83% and a remaining activity at 10 µM (MAPK1(h); [10]) of 114%. It also gave a remaining activity at 10 µM (ACTR2(h); [10]) of 97%, a remaining activity at 10 µM (MAPK2(m); [10]) of 91% and a remaining activity at 10 µM (EGFR [4]; [10]) of 72%. For the same compound, the remaining activity at 10 µM (CLK4 [5]; [10]) was 16%.

`COc1ccc2ncnc(Nc3cccc(F)c3)c2c1` [5ay, N-(3-Fluorophenyl)-6-Methoxy-4-Quinazolinamine] showed a remaining activity at 10 µM (CLK4 [1]; [11]) of 6%, a remaining activity at 10 µM (MAPK2(h); [12]) of 100% and a remaining activity at 10 µM (MAPK1(h); [12]) of 84%. The remaining activity at 10 µM (ACTR2(h); [12]) was 85%, the remaining activity at 10 µM (MAPK2(m); [12]) was 118% and the remaining activity at 10 µM (EGFR [2]; [11]) was 1%.
